Values of other authors in article PMC12177174 (iScience, 2025).

What was measured:
[1] = cited from earlier work
Axin2 mRNA = settings: cited from earlier work
[2] = 20 patients, median 22 weeks treatment; cited from earlier work
bone mineral density = settings: cited from earlier work
skin fibrosis = settings: cited from earlier work
heart repair = settings: cited from earlier work
tumor cell proliferation = settings: cited from earlier work

| SMILES | participants reporting dysgeusia [1] [%] | participants with reduced tumor size ([1]; various advanced cancers) [%] | mean reduction in AXIN2 mRNA levels in skin biopsies (Axin2 mRNA) | patients who developed fragility fractures [2] [%] | bone mineral density (bone mineral density) | skin fibrosis (skin fibrosis) | heart repair following cardiac injury (heart repair) | tumor cell proliferation (tumor cell proliferation) |
| --- | --- | --- | --- | --- | --- | --- | --- | --- |
| Cc1cc(-c2ncc(CC(=O)Nc3ccc(-c4cnccn4)cn3)cc2C)ccn1 [WNT974] | ≤ 50 | 74 | 50%–60% | 45 | caused loss of bone mineral density | prevented progression of skin fibrosis | promoted heart repair |  |
| Cc1c(-c2ccnc(C(F)(F)F)c2)ncn1CC(=O)Nc1ccc(-c2cnccn2)cn1 [RXC004] |  |  |  |  |  |  |  | inhibits tumor cell proliferation |
